Test results published in PMC9250534, “Synthesis and direct assay of large macrocycle diversities by combinatorial late-stage modification at picomole scale” (Nature Communications, 2022).

target: MDM2 (Homo sapiens, UniProt Q00987); test: MDM2 binding screen of Libraries 3 and 4: displacement of fluorescent probe F-M8 at 750 nM macrocycle; details: Panel b, Library 3: 63 scaffolds combinatorially acylated with 15 carboxylic acids at 30 picomole scale; displacement of fluorescent peptide probe; macrocycle 750 nM
Procedure, shortened: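 Competition with nutlin-3a was run using the fluorescein conjugate. Library members came from scaffolds reacted 6 h at room temperature with carboxylic acids (20 equiv.), HBTU and DABCO in DMSO. Quenching was overnight in Tris-Cl pH 7.4 buffer with 0.01% Tween20.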

Chain of MDM2 (Q00987 whole entry): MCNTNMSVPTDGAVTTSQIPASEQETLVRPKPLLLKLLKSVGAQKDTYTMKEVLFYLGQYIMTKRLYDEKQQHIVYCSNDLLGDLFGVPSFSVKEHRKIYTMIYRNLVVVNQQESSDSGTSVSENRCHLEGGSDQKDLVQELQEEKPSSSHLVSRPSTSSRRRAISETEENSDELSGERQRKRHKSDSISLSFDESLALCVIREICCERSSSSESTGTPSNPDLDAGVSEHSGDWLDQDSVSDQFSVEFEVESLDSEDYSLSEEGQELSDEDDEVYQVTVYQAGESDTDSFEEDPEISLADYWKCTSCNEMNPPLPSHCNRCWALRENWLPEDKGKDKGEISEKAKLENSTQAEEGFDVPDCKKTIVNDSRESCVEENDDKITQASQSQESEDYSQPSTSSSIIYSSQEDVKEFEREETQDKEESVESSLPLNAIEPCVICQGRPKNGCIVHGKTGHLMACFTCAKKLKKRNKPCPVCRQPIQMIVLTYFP

SMILES | fraction of fluorescent probe displaced
O=C(CCS(=O)(=O)c1ccccc1)NCCN1CC(=O)N[C@@H](Cc2cccc3ccccc23)C(=O)NCCSSCCC(=O)NCC2(CC2)C1=O [X-Amcp-N-Aeg-1-NaI + Acid 114] | 0.00133
O=C1CN(CCNC(=O)c2ccc(Cl)s2)C(=O)[C@H]2CCCN(C2)C(=O)CCSSCCNC(=O)[C@H](Cc2c[nH]c3ccccc23)N1 [X-Nip-N-Aeg-Trp + Acid 14] | -0.00533
CC(Oc1cccc(Cl)c1)C(=O)NCC1NC(=O)C2(CC2)CNC(=O)CCSSCCNC(=O)C(Cc2c[nH]c3ccccc23)NC1=O (mixture of isomers) [X-Amcp-Dap-D-Trp + Acid 113] | -0.012
O=C1CCSSCCNC(=O)[C@H](Cc2c[nH]c3ccccc23)NC(=O)[C@H](CNC(=O)c2ccc3ccccc3c2)NC(=O)C2(CC2)CN1 [X-Amcp-Dap-Trp + Acid 107] | 0.063
O=C1CN(CCNC(=O)c2cccc(Oc3ccccc3)c2)C(=O)[C@H]2CCCN(C2)C(=O)CCSSCCNC(=O)[C@H](Cc2cccc3ccccc23)N1 [X-Nip-N-Aeg-1-NaI + Acid 111] | 0.035
O=C(CCS(=O)(=O)c1ccccc1)NC[C@H]1NC(=O)[C@H]2CCCN(C2)C(=O)CCSSCCNC(=O)[C@H](Cc2ccc3ccccc3c2)NC1=O [X-Nip-D-Dap-2-Nal + Acid 114] | 0.048
O=C1CCSSCCNC(=O)[C@H](Cc2cccc3ccccc23)NC(=O)[C@H](CNC(=O)c2ccc(Cl)s2)NC(=O)C2(CC2)CN1 [X-Amcp-Dap-1-NaI + Acid 14] | -0.019
CC(Oc1cccc(Cl)c1)C(=O)NC[C@@H]1NC(=O)[C@@H]2CN(CCO2)C(=O)CCSSCCNC(=O)[C@H](Cc2c[nH]c3ccccc23)NC1=O (stereo partly drawn) [X-Cop-Dap-Trp + Acid 113] | -0.00533
O=C(/C=C/c1ccc2ccccc2c1)NCCN1CC(=O)N[C@@H](Cc2cccc3ccccc23)C(=O)NCCSSCCC(=O)NCC2(CC2)C1=O [X-Amcp-N-Aeg-1-NaI + Acid 112] | 0.008
O=C1CCSSCCNC(=O)C(Cc2c[nH]c3ccccc23)NC(=O)C(CNC(=O)C2COc3ccccc3O2)NC(=O)C2(CC2)CN1 (mixture of isomers) [X-Amcp-Dap-Trp + Acid 115] | 0.00133
O=C(/C=C/c1ccc(Cl)cc1)NC[C@@H]1NC(=O)C2(CC2)CNC(=O)CCSSCCNC(=O)[C@H](Cc2c[nH]c3cc(Cl)ccc23)NC1=O [X-Amcp-Dap-Cl-Trp + Acid 108] | 0.00133
O=C1CN(CCNC(=O)C2COc3ccccc3O2)C(=O)[C@H]2CCCN(C2)C(=O)CCSSCCNC(=O)[C@H](Cc2c[nH]c3ccccc23)N1 (stereo partly drawn) [X-Nip-N-Aeg-Trp + Acid 115] | 0.021
O=C(/C=C/c1ccc(OCc2ccccc2)cc1)NCCN1CC(=O)N[C@@H](Cc2ccc3ccccc3c2)C(=O)NCCSSCCC(=O)N2CCC[C@@H](C2)C1=O [X-Nip-N-Aeg-2-Nal + Acid 110] | 0.035
O=C(/C=C/c1ccc(OCc2ccccc2)cc1)NCCN1CC(=O)N[C@H](Cc2c[nH]c3ccccc23)C(=O)NCCSSCCC(=O)NCC2(CC2)C1=O [X-Amcp-N-Aeg-D-Trp + Acid 110] | 0.015
CN1C(=O)[C@@H](CNC(=O)c2ccc(Cl)cc2)NC(=O)[C@@H]2CN(CCO2)C(=O)CCSSCCNC(=O)[C@@H]1Cc1c[nH]c2ccccc12 [X-Cop-D-Dap-NMe-Trp + Acid 25] | -0.019
O=C(CCS(=O)(=O)c1ccccc1)NC[C@H]1NC(=O)[C@H]2CCCN(C2)C(=O)CCSSCCNC(=O)[C@@H](Cc2c[nH]c3ccccc23)NC1=O [X-Nip-D-Dap-D-Trp + Acid 114] | 0.021
Cn1cc(C[C@@H]2NC(=O)[C@@H](CNC(=O)C3COc4ccccc4O3)NC(=O)[C@H]3CCCN(C3)C(=O)CCSSCCNC2=O)c2ccccc21 (stereo partly drawn) [X-Nip-D-Dap-Me-Trp + Acid 115] | -0.012
O=C1CCSSCCNC(=O)[C@H](Cc2cccc3ccccc23)NC(=O)[C@@H](CNC(=O)c2cccc(Oc3ccccc3)c2)NC(=O)C2(CC2)CN1 [X-Amcp-D-Dap-1-NaI + Acid 111] | 0.008
Cn1cc(C[C@@H]2NC(=O)[C@@H](CNC(=O)CCS(=O)(=O)c3ccccc3)NC(=O)C3(CC3)CNC(=O)CCSSCCNC2=O)c2ccccc21 [X-Amcp-D-Dap-Me-Trp + Acid 114] | 0.015
O=C1CN(CCNC(=O)C2COc3ccccc3O2)C(=O)[C@@H]2CN(CCO2)C(=O)CCSSCCNC(=O)[C@H](Cc2c[nH]c3ccccc23)N1 (stereo partly drawn) [X-Cop-N-Aeg-Trp + Acid 115] | -0.012
O=C1CCSSCCNC(=O)C(Cc2cccc3ccccc23)NC(=O)C(CNC(=O)C2CC2c2ccccc2)NC(=O)C2(CC2)CN1 (mixture of isomers) [X-Amcp-D-Dap-1-NaI + Acid 105] | -0.034
CC(Oc1cccc(Cl)c1)C(=O)NC[C@H]1NC(=O)C2(CC2)CNC(=O)CCSSCCNC(=O)[C@H](Cc2cccc3ccccc23)NC1=O (stereo partly drawn) [X-Amcp-D-Dap-1-NaI + Acid 113] | -0.00533
O=C(NC[C@H]1NC(=O)[C@H]2CCCN(C2)C(=O)CCSSCCNC(=O)[C@H](Cc2ccc3ccccc3c2)NC1=O)c1cccc(Oc2ccccc2)c1 [X-Nip-D-Dap-2-Nal + Acid 111] | 0.00133
Cn1cc(C[C@@H]2NC(=O)[C@@H](CNC(=O)c3ccc(Cl)s3)NC(=O)[C@@H]3CN(CCO3)C(=O)CCSSCCNC2=O)c2ccccc21 [X-Cop-D-Dap-Me-Trp + Acid 14] | -0.00533
O=C1CCSSCCNC(=O)[C@@H](Cc2c[nH]c3ccccc23)NC(=O)CN(CCNC(=O)c2cccc(Oc3ccccc3)c2)C(=O)C2(CC2)CN1 [X-Amcp-N-Aeg-D-Trp + Acid 111] | 0.008
Cn1cc(C[C@@H]2NC(=O)[C@H](CNC(=O)CCS(=O)(=O)c3ccccc3)NC(=O)C3(CC3)CNC(=O)CCSSCCNC2=O)c2ccccc21 [X-Amcp-Dap-Me-Trp + Acid 114] | 0.041
O=C(/C=C/c1ccc2ccccc2c1)NC[C@@H]1NC(=O)[C@@H]2CN(CCO2)C(=O)CCSSCCNC(=O)[C@H](Cc2cccc3ccccc23)NC1=O [X-Cop-Dap-1-NaI + Acid 112] | 0.021

The next lines start with the values.

fraction of fluorescent probe displaced | SMILES
-0.00533 | O=C(/C=C/c1ccc2ccccc2c1)NC[C@H]1NC(=O)[C@H]2CCCN(C2)C(=O)CCSSCCNC(=O)[C@H](Cc2c[nH]c3cc(Cl)ccc23)NC1=O [X-Nip-D-Dap-Cl-Trp + Acid 112]
-0.019 | CC(Oc1cccc(Cl)c1)C(=O)NC[C@H]1NC(=O)[C@H]2CCCN(C2)C(=O)CCSSCCNC(=O)[C@H](Cc2c[nH]c3ccccc23)NC1=O (stereo partly drawn) [X-Nip-D-Dap-Trp + Acid 113]
0.008 | O=C(/C=C/c1ccc(OCc2ccccc2)cc1)NC[C@H]1NC(=O)[C@H]2CCCN(C2)C(=O)CCSSCCNC(=O)[C@H](Cc2c[nH]c3cc(Cl)ccc23)NC1=O [X-Nip-D-Dap-Cl-Trp + Acid 110]
-0.015 | O=C(/C=C/c1ccncc1)NC[C@@H]1NC(=O)[C@H]2CCCN(C2)C(=O)CCSSCCNC(=O)[C@@H](Cc2c[nH]c3ccccc23)NC1=O [X-Nip-Dap-D-Trp + Acid 106]
-0.00533 | O=C(/C=C/c1ccc(OCc2ccccc2)cc1)NC[C@H]1NC(=O)C2(CC2)CNC(=O)CCSSCCNC(=O)[C@@H](Cc2c[nH]c3ccccc23)NC1=O [X-Amcp-D-Dap-D-Trp + Acid 110]
0.440 | O=C(NC[C@@H]1NC(=O)[C@H]2CCCN(C2)C(=O)CCSSCCNC(=O)[C@H](Cc2c[nH]c3ccccc23)NC1=O)c1ccc2ccccc2c1 [X-Nip-Dap-Trp + Acid 107]
0.015 | O=C(CCS(=O)(=O)c1ccccc1)NC[C@H]1NC(=O)[C@H]2CCCN(C2)C(=O)CCSSCCNC(=O)[C@H](Cc2c[nH]c3cc(Cl)ccc23)NC1=O [X-Nip-D-Dap-Cl-Trp + Acid 114]
0.00133 | Cn1cc(C[C@@H]2NC(=O)CN(CCNC(=O)/C=C/c3ccc(OCc4ccccc4)cc3)C(=O)[C@H]3CCCN(C3)C(=O)CCSSCCNC2=O)c2ccccc21 [X-Nip-N-Aeg-Me-Trp + Acid 110]
0.00133 | O=C(/C=C/c1ccc(Cl)cc1)NC[C@H]1NC(=O)[C@H]2CCCN(C2)C(=O)CCSSCCNC(=O)[C@H](Cc2c[nH]c3cc(Cl)ccc23)NC1=O [X-Nip-D-Dap-Cl-Trp + Acid 108]
0.108 | O=C(/C=C/c1ccc(Cl)cc1)NC[C@@H]1NC(=O)[C@H]2CCCN(C2)C(=O)CCSSCCNC(=O)[C@H](Cc2c[nH]c3cc(Cl)ccc23)NC1=O [X-Nip-Dap-Cl-Trp + Acid 108]
0.021 | O=C(/C=C/c1ccc(OCc2ccccc2)cc1)NC[C@@H]1NC(=O)[C@H]2CCCN(C2)C(=O)CCSSCCNC(=O)[C@H](Cc2ccc3ccccc3c2)NC1=O [X-Nip-Dap-2-Nal + Acid 110]

same assay, conditions: Panel c, Library 4: best nine scaffolds and 15 additional carboxylic acids; displacement of fluorescent probe

SMILES | fraction of fluorescent probe displaced
CC(C)c1ccc(/C=C/C(=O)NC[C@@H]2NC(=O)[C@H]3CCCN(C3)C(=O)CCSSCCNC(=O)[C@H](Cc3cn(C)c4ccccc34)NC2=O)cc1 [X-Nip-Dap-Me-Trp + Acid 127] | 0.028
O=C(/C=C/c1cccc(C(F)(F)F)c1)NC[C@@H]1NC(=O)[C@H]2CCCN(C2)C(=O)CCSSCCNC(=O)[C@H](Cc2c[nH]c3ccccc23)NC1=O [X-Nip-Dap-Trp + Acid 122] | 0.395
CC(C)c1ccc(/C=C/C(=O)NC[C@@H]2NC(=O)C3(CC3)CNC(=O)CCSSCCNC(=O)[C@H](Cc3c[nH]c4ccccc34)NC2=O)cc1 [X-Amcp-Dap-Trp + Acid 127] | 0.028
CCCOc1ccc(/C=C/C(=O)NC[C@@H]2NC(=O)[C@H]3CCCN(C3)C(=O)CCSSCCNC(=O)[C@H](Cc3c[nH]c4ccccc34)NC2=O)cc1 [X-Nip-Dap-Trp + Acid 118] | 0.435
